Reference: US20140088144A1, “INHIBITING MICROBIAL INFECTIONS” (THE UNIVERSITY OF KANSAS, priority 2012, published 2014)

Key:
MBP-NS1-NTD = experiment: Fluorescence-based thermal shift assay (Sypro Orange), control protein; assay type: binding; conditions: 0 or 80 μM SE-1, 1 μM protein
Method: Binding of SE-1 to purified VirF was tested by comparing the VirF melting temperature (Tm) in the absence and presence of SE-1 using a thermal shift assay with the fluorescent dye Sypro Orange (Molecular Probes). This method is also known as differential scanning fluorimetry or DSF. As a control, we tested binding of SE-1 to the purified, unrelated, MBP-NS1-NTD protein (greater than 95% pure). Reactions contained (final concentrations): 1 μM protein; 20×Sypro Orange (a 250-fold dilution of the purchased 5,000× stock solution); 0.76×EMSA buffer (7.6 mM Tris-acetate, pH 7.4, 0.76 mM KEDTA, 38 mM KCl, and 0.76 mM DTT); 4% DMSO; and 0 or 80 μM SE-1. The reactions were carried out in 0.1 ml PCR low profile 8-tube strips with optically clear flat caps (USA Scientific) in a StepOnePlus™ Real-Time PCR System (Applied Biosystems), heating from 25 to 99° C. in increments of 0.8° C. The data was analyzed using the Boltzmann sigmoidal model in the software Prism (GraphPad). Data points before and after the fluorescence intensity minimum and maximum, respectively, were excluded from fitting. The ΔTm values are the average of three independent experiments with two replicates in each experiment. A single, representative, experiment is shown.

ipaB = experiment: Shigella gene expression qRT-PCR, ipaB; assay type: cell-based, S. flexneri; conditions: for Average ΔΔCt / Ct / RQ (2^−ΔΔCt) / ΔΔCt^1 (normalized to gapA) / ΔΔCt^2 (normalized to rrsA): ipaB, example data
Method: Real-time quantitative reverse transcription PCR (qRT-PCR) was performed to test the effects of SE-1 on the expression of the VirF regulated genes virB, icsA, icsB and ipaB. The gapA and rrsA transcripts were used as internal controls. These are constitutively expressed Shigella genes commonly used to normalize mRNA levels. S. flexneri strain SME4331, which carries a null mutation in ipgD (ipgD), was grown at 30° C. overnight in TSB with ampicillin, diluted into the same medium to an OD600 of ˜0.1, and 1 ml aliquots further grown at 30° C. (DMSO only) or at 37° C. (SE-1 at 20 or 40 μM, or DMSO only, all 0.3% DMSO). Cells were grown to an OD600 of 1.0 (˜2.5 h) and RNA was isolated using an RNeasy MiniElute Cleanup Kit (Qiagen, Germantown, Md.), with DNA contamination eliminated using a Turbo DNase Kit (Ambion, Austin, Tex.). Complementary DNA (cDNA) was synthesized by random priming using a cDNA Reverse Transcription Kit (Applied Biosystems, Foster City, Calif.). Primers were tested for PCR specificity using genomic DNA template to ensure a single amplicon of the expected size for each primer pair, and validated using 5-fold dilutions of cDNA (2000 to 0.0256 ng) to ensure a linear plot of cycle threshold (Ct) versus cDNA concentration. Validated primer sets were used to test mRNA profiles in reactions that contained 10 ng of cDNA, 10 μl of SYBR green master mix (Applied Biosystems), specific primers (0.5 μM each) and water to a final volume of 20 μl, using a Step One Plus Real-Time PCR System (Applied Biosystems). The data was analyzed using the 2^−ΔΔCt method, and also by Applied Biosystems real-time analysis software. […] In brief, ΔΔCt values [ΔΔCt=(Ct,Target−Ct,Internal Control)SE-1−(Ct,Target−Ct,Internal Control)no SE-1] were separately obtained for each sample relative to two internal controls, gapA and rrsA. The ΔΔCt values relative to the two internal controls for each sample were averaged and then used to calculate the relative expression levels (2^−ΔΔCt). As a control, we also normalized each internal control to the other internal control. Control reactions used templates generated without reverse transcriptase to ensure low genomic DNA contamination. To ensure that products were not likely to be due to primer dimer artifacts, additional control samples were performed in which reaction mixtures contained primers alone (no template).

Shigella = Shigella growth; assay type: cell-based, S. flexneri
Rns = Rns (Escherichia coli, UniProt P16114); experiment: In vivo activation by Rns (promoter-lacZ fusion); assay type: cell-based, Enterotoxigenic E. coli; conditions: compared with full-length RhaS
Text: Expression of promoter-lacZ fusions regulated by the indicated activators, or the control Lad regulated fusion at the indicated concentrations of Compound 1. Average of three independent experiments, with two replicates in each experiment.
The compounds of the invention can be used for inhibition of virulence in vivo and in vitro activation by Rns and VirF.

RhaS = RhaS (Escherichia coli, UniProt P09377); experiment: % Inhibition at 82.5 μM, RhaS; assay type: cell-based, E. coli
VirF = VirF (Shigella flexneri, UniProt P0A2T1); experiment: % Inhibition at 82.5 μM, VirF; assay type: cell-based; conditions: 82.5 μM
Sequence of VirF (P0A2T1 whole entry): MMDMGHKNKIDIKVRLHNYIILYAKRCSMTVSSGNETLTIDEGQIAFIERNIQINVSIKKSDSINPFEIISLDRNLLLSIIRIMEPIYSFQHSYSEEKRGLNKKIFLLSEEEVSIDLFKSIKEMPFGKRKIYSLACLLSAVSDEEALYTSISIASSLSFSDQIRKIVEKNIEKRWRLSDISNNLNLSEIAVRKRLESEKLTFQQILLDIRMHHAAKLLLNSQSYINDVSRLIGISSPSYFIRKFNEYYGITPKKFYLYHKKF

Sequence of RhaS (P09377 whole entry): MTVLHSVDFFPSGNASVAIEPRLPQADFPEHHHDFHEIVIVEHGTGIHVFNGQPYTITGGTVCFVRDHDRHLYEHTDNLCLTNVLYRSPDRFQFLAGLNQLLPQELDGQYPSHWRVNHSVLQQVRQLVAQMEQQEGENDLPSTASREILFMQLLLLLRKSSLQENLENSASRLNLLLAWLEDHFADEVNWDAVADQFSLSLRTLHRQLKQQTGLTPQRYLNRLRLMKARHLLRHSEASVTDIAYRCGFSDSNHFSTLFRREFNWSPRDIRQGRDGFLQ
Sequence of Rns (P16114 whole entry, the tested form may be a part): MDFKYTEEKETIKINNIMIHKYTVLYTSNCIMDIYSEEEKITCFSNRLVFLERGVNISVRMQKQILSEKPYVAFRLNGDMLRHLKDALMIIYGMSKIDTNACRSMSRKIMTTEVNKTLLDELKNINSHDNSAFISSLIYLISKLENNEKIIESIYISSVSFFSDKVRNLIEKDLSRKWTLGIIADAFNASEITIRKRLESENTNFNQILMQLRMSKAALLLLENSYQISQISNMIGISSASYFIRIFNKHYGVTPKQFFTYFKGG

For `CCCCN1C=C(c2ccc3ccccc3n2)C(C[N+](=O)[O-])c2ccccc21` (stereo not drawn) [Compound 1, 1-butyl-4-(nitromethyl)-3-quinolin-2-yl-4H-quinoline], the “change in melting temperature of MBP-NS1-NTD” value (MBP-NS1-NTD) was 0.15 °C, the “reduction of ipaB expression” value (ipaB; 40 μM inhibitor, P<0.05) was “up to 4 fold” and the “Average ΔΔCt” value (ipaB; SE-1 20 μM) was 1.11. The Ct (ipaB; SE-1 20 μM) was 25.57, the “RQ (2^−ΔΔCt)” value (ipaB; SE-1 20 μM) was 0.46 and the “ΔΔCt^1 (normalized to gapA)” value (ipaB; SE-1 20 μM) was 0.62. The “ΔΔCt^2 (normalized to rrsA)” value (ipaB; SE-1 20 μM) was 1.61, the “Average ΔΔCt” value (ipaB; SE-1 40 μM) was 2.20 and the Ct (ipaB; SE-1 40 μM) was 26.23. The “RQ (2^−ΔΔCt)” value (ipaB; SE-1 40 μM) was 0.22, the “ΔΔCt^1 (normalized to gapA)” value (ipaB; SE-1 40 μM) was 1.85 and the “ΔΔCt^2 (normalized to rrsA)” value (ipaB; SE-1 40 μM) was 2.54. For the same compound, the “growth of S. flexneri samples” value (Shigella; 80 μM SE-1, virB-lacZ strain) was “exhibited growth defects”, the “decrease in the Shigella growth rate” value (Shigella; concentrations up to 40 μM, SME4331) was “no detectable decrease” and the Shigella growth rate (Shigella; strain M90T, invasion study with human epithelial cells) was “not the Shigella growth rate”. The “inhibition of in vivo activation by Rns” value (Rns) was “similar, if not greater, extent than full-length RhaS”, the “% Inhibition at 82.5 μM RhaS” value (RhaS) was 90% and the “% Inhibition at 82.5 μM VirF” value (VirF) was 100%.
